Reference: patent US9023800B2, “Peptides for the treatment of oxidative stress related disorders” (Ramot at Tel-Aviv University Ltd., priority 2009, dated 2015)

Legend:
[1] = test system: human neuroblastoma SH-SY5Y cells; assay: Serum deprivation in neuroblastoma cells; assay type: cell-based; conditions: during serum deprivation, vs saline (FIG. 4A)
Experimental: FIG. 4A is a bar graph illustrating that DJ-1-related peptides are protective against serum deprivation.
(§1) Human neuroblastoma SH-SY5Y cells are obtained from the American tissue Type Culture Collection (ATCC, Rockville, USA). Cells are grown under sterile conditions as monolayer in DMEM medium supplemented with 10% heat-inactivated fetal calf serum (FCS), gentamicin ([…]), and glutamine (5 mM) in a 5% CO2 humidified atmosphere at 37° C. The medium is routinely changed every 4 days, and cells are passaged every 8 days. All experiments are performed on cells which are near confluence.

[2] = test system: neuronally differentiated murine neural stem cells; assay: Oxidative insult (H2O2) in neuronally differentiated neural stem cells; assay type: cell-based; conditions: pretreated vs saline before exposure to hydrogen peroxide (FIG. 6)
Experimental: Neural progenitor/stem cells are isolated from murine cortex of postnatal c57/bl mice and cultured as neurospheres. Neural and astroglial differentiation are induced.
Susceptibility of differentiated and undifferentiated neural progenitor/stem cells to oxidative and toxic insults are determined with and without prior pretreatment with DJ-1 related peptides.
Susceptibility of differentiated and undifferentiated neural progenitor/stem cells to oxidative and toxic insults was determined with and without prior pretreatment with DJ-1 related peptides, as illustrated in FIG. 6.

[3] = test system: human neuroblastoma SH-SY5Y cells; assay: 6-hydroxydopamine toxicity in neuroblastoma cells; assay type: cell-based
Experimental: as §1, with “confluence. […]” for “confluence.”
(§2) Cells are seeded in 96-wells plates at the concentration of 5000 cells per well and allowed to attach over night. […] Alamar blue fluorescence is measured by FLUOstar spectrofluorometer at the excitation wavelength of 544 nm and the emission wavelength of 590 nm. […]
(§3) LDH released by damaged cells into the cell culture supernatant is determined using LDH cytotoxicity detection kit (Clontech laboratories, CA, USA), according to the manufacturer's instructions. […] The percentage of dead cells is calculated by the following formula of the absorbance values: (triplicate absorbance−low control)/(maximum absorption−low control)×100.
Hoechst 33342 enters cells with intact or damaged membranes and stains DNA in blue, thereby allowing evaluation of cell number in each well as well. […] Excitation is performed at 346 nm and emission wavelength is determined at 460 nm. […]

HaCaT cells = assay: Protection against UV radiation in keratinocytes; assay type: cell-based, human; conditions: HaCaT pretreated vs saline before UV radiation (FIG. 14)
Experimental: The immortalized human HaCaT keratinocyte cells are used to test DJ-1 related peptides ability to protect against UV radiation induced injury. Cells are maintained in minimal essential medium containing 0.075 mM Ca^2+ (MEM-75) and 10% FCS in 5 cm Petri-dishes and subcultured every 3-4 days.
Cultured keratinocytes were used to examine the ability of DJ-1 related peptides to protect against the damaging effects of UV radiation.

[4] = test system: human neuroblastoma SH-SY5Y cells; assay: Hydrogen peroxide (H2O2) oxidative stress in neuroblastoma cells; assay type: cell-based
Experimental: as §1
(§4) Neuroblastoma cells are contacted with hydrogen peroxide (H2O2) (0-1 mM; Sigma, Chemicals Co., St. Louis, Mo., USA), 6-hydroxydopamine (0-100 μM; Sigma, Chemicals Co., St. Louis, Mo., USA), dopamine (0-500 μM; Sigma, Chemicals Co., St. Louis, Mo., USA) and 3-(4-morpholinyl)-sydnonimine (SIN-I) (0-5 mM; Sigma), (which is a peroxynitrite free radical donor), in order to produce ROS formation.
Several methods are used in order to determine the toxic effects of oxidative insults, neurotoxins and dopamine on cellular metabolic activity, mitochondrial activity and cell viability.
as §2, §3
Hoechst 33342 enters cells with intact or damaged membranes and stains DNA in blue, thereby allowing evaluation of cell number in each well as well. A FLUOstar spectrofluorometer microplate reader may be used in order to evaluate the cell number in each well following exposure to different doses of various toxins. Excitation is performed at 346 nm and emission wavelength is determined at 460 nm. […]

[5] = test system: human neuroblastoma SH-SY5Y cells; assay: Cell proliferation by [3H]thymidine incorporation; assay type: cell-based; conditions: exposure to the peptides (FIG. 1D)
Experimental: FIGS. 1A-F are bar graphs illustrating that DJ-1-related peptide TAT 2a (SEQ ID NO: 24) is protective in vitro against oxidative and toxic insults. […] Cell proliferation was measured by quantifying [^3H]thymidine incorporation. […] The presented experiments were done on human neuroblastoma SH-SY5Y cells, and repeated at least 3 times. *p<0.05, as compared to control cells treated with vehicle and exposed to the same toxic insult.
as §1

[6] = test system: human neuroblastoma SH-SY5Y cells; assay: Dopamine toxicity in neuroblastoma cells; assay type: cell-based; conditions: SH-SY5Y (FIG. 1F)
Experimental: as §1, §4
Cells are seeded in 96-wells plates at the concentration of 5000 cells per well and allowed to attach over night. On the following day, the cells are exposed to increasing doses of dopamine (0-500 uM) for 4 hours in serum free medium. Alamar blue is a non toxic reagent which incorporates a redox indicator that changes color in response to metabolic activity. […] Alamar blue fluorescence is measured by FLUOstar spectrofluorometer at the excitation wavelength of 544 nm and the emission wavelength of 590 nm. […]

[7] = test system: primary mixed neuronal and glial cultures obtained from cortex of postnatal wild type C57/bl mice; assay: Hydrogen peroxide toxicity in primary cultures; assay type: cell-based; conditions: increasing concentrations of hydrogen peroxide (FIGS. 5A-B)
Experimental: (§5) Murine neuronal and astrocytes primary cultures derived from cortical tissues of post natal c57/bl mice are prepared and used in order to examine protective potential of DJ-1 related peptides.
(§6) T protective effects of DJ-1 peptides on primary cultures, and on differentiated and undifferentiated neural stem cells obtained from C57/bl mice brains were evaluated. […] Specifically, FIGS. 5A-B illustrate protection of Tat 2A against oxidative and toxic injuries in primary mixed neuronal and astrocytes cultures from post natal mice brains. Neural progenitor/stem cells were isolated from murine cortex of postnatal c57/bl mice and cultured as neuro spheres. Neural and astroglial differentiation were induced.

[8] = test system: primary mixed neuronal and glial cultures obtained from cortex of postnatal wild type C57/bl mice; assay: 6-hydroxydopamine toxicity in primary cultures; assay type: cell-based; conditions: increasing concentrations of 6-hydroxydopamine (FIGS. 5A-B)
Experimental: as §5, §6

[9] = test system: neuroblastoma cells overexpressing A53T alpha-synuclein; assay: Hydrogen peroxide toxicity in cells overexpressing mutant alpha-synuclein; assay type: cell-based, human; conditions: A53T alpha-synuclein cells exposed to hydrogen peroxide (FIG. 10)
Experimental: The coding region of human wild-type or A53T mutant alpha-synuclein cDNA is subcloned into pcDNA3.1-plasmid (BD Biosciences, Clontech). In order to achieve overexpression of A53T mutant alpha-synuclein, SH-SY5Y neuroblastoma cells are stably transfected with the plasmid containing A53T mutant alpha-synuclein. Transfections are performed using the lipofectamine 2000 reagent (Invitrogen, Carlsbad, Calif.). Selection of transfected cells is performed by treating the cells with lethal doses of geniticin (G-418). Naive neuroblastoma cells as well as cells stably transfected with the empty vector are used as controls.
Stable transfections are verified by measuring alpha-synuclein mRNA and protein levels using real-time PCR and Western blotting.
A53T mutant alpha-synuclein is one of the causes for genetically inherited Parkinson's Disease. Neuroblastoma cells overexpressing mutated alpha-synuclein were used as a cellular platform for Parkinson's Disease. In order to achieve overexpression of A53T mutant alpha-synuclein, SH-SY5Y neuroblastoma cells were stably transfected with the plasmid containing A53T mutant alpha-synuclein.

NSC-34 cells [10] = assay: Hydrogen peroxide toxicity in cellular model of ALS; assay type: cell-based; conditions: NSC-34 pretreated vs saline before hydrogen peroxide (FIG. 12A)
From the text: (§7) NSC-34 cells were used as a cellular model for ALS. Increasing doses of hydrogen peroxide and SIN-I, an NO donor, which are implicated in the pathogenesis of ALS were used.

NSC-34 cells [11] = assay: SIN-I toxicity in cellular model of ALS; assay type: cell-based; conditions: NSC-34 pretreated vs saline before SIN-I (FIG. 12B)
Experimental: as §4, §7

[12] = test system: 6-hydroxydopamine hemiparkinsonian mice model; assay: In vivo 6-hydroxydopamine induced hemiparkinsonian mice model
MPTP Parkinson's model = MPTP Parkinson's model in mice; assay type: in vivo; conditions: subcutaneous 0.4 mM; MPTP 20 mg/kg i.p. 5 consecutive days; 18 days later (FIG. 17)
Experimental: In order to generate an animal model for Parkinson's disease, mice were treated with 1-methyl-4-phenyl-1,2,3,6-tetrahydropyridine (MPTP). 5 mice (C57/bl) were injected for 5 consecutive days with 20 mg/kg MPTP (i.p.) in the presence and absence of the DJ-1 related peptide (0.4 mM subcutaneous; SEQ ID NO: 25). 18 days later, the mice were sacrificed and the dopamine level, in the two hemispheres was measured by HPLC.

For GAEEME (Artificial seqence) [peptide I], the viability [1] was “Increased viability” and the viability [2] was “Increased viability”.
“KGAEEMETVIPV (Artificial seqence) [short 2a]” was tested, and the viability [1] was “Increased viability”.
In the case of “VDVMRRAGI (Artificial seqence) [peptide II]”, the viability ([3]; SH-SY5Y pretreated vs saline before 6-hydroxydopamine (FIG. 3)) is reported as “Increased viability”, the viability [1] is reported as “Increased viability” and the viability [2] is reported as “Increased viability”. For the same substance, the metabolic activities (HaCaT cells) was “Increased metabolic activities”.
With “YGRKKRRKGAEEMETVIPVD (Artificial seqence) [TAT 2a]” the cell viability ([4]; exposure to H2O2, vs saline alone (FIG. 1A)) was “Increased cell viability”, the mitochondrial damage ([4]; exposure to H2O2, vs saline alone (FIG. 1B)) was “decreased mitochondrial damage” and the metabolic activity ([4]; exposure to H2O2, vs saline alone (FIG. 1C)) was “increased metabolic activity”. The “cell proliferation ([3H]thymidine incorporation)” value [5] was “no increased cell proliferation”, the “protection against 6-hydroxydopamine toxicity” value ([3]; SH-SY5Y (FIG. 1E)) was “Protection” and the “protection against dopamine toxicity” value [6] was “Protection”. The “protection against H2O2 toxicity” value [7] was “protection”, the “protection against 6-hydroxydopamine toxicity” value [8] was “protection” and the viability [9] was “Significantly increased viability”. The viability (NSC-34 cells [10]) was “Increased viability”, the viability (NSC-34 cells [11]) was “Increased viability” and the metabolic activities (HaCaT cells) was “Increased metabolic activities”. For the same substance, the “fraction of the lesioned mice that rotated in response to amphetamine injection” value ([12]; 50 μg IV 4 hours before 6-hydroxydopamine lesioning (FIG. 16B)) was “smaller fraction”, the amphetamine-induced rotations ([12]; 50 μg IV 4 hours before 6-hydroxydopamine lesioning, vs saline (FIG. 16A)) was “Significantly reduced” and the “fraction of the lesioned mice that rotated in response to amphetamine injection” value ([12]; intrastriatal 2 μl of 100 μM one hour before lesioning (FIG. 15B)) was “smaller fraction”. For the same substance, the amphetamine-induced rotations ([12]; intrastriatal 2 μl of 100 μM one hour before lesioning, 2 and 4 weeks after lesioning, vs saline (FIG. 15A)) was “Significantly reduced”, the “accelerating Rotarod examination” value ([12]; intrastriatal peptide vs saline-treated controls, p=0.02) was “significant difference” and the “6-hydroxydopamine-induced loss of tyrosine hydroxylase (TH) staining in the lesioned striatum” value ([12]; intrastriatal peptide, immunohistochemical staining) was “reversed”.
“YGRKKRRTVIPVDVMRRAGI (Artificial seqence) [TAT 2b]” was tested, and the viability (NSC-34 cells [10]) was “Increased viability”, the viability (NSC-34 cells [11]) was “Increased viability” and the “protection against MPTP Parkinson's model (dopamine level by HPLC)” value (MPTP Parkinson's model) was “protects”.
